According to the NIST ThermoML archive (doi:10.1016/j.fluid.2005.12.006):
± gives the expanded uncertainty stated by the source.

test: refractive index (Na D-line) (dimensionless); conditions: 293.1 K; 101.33 kPa; Liquid; Standard Abbe refractometry

| refractive index | SMILES |
| --- | --- |
| 1.422 ± 0.0007 | CCCCCCCCCCCC [dodecane] |
| 1.489 ± 0.0007 | CCC(C)c1ccccc1 (stereo not drawn) [(1-methylpropyl)benzene] |
| 1.4281 ± 0.0007 | CN(C)C=O [dimethylformamide] |
